In assay [1] the test system is 5,12-diHETE synthesis by rat glycogen-elicited polymorphonuclear leukocytes. Briefly: Inhibition of 5,12-diHETE synthesis by rat glycogen-elicited polymorphonuclear leukocytes. Format: cell-based. The settings on record: Leukocyte, rat PMN; for IC50: A23187 10 μM, read-out: 50% Inhibitory Concentration (IC50). The method, then: This is especially true with respect to 5,12-diHETE, which is also denoted as LTB4 [see Ford-Hitchinson, J. Roy. Soc. Med., 74, 831 (1981)]. The assay of this Example measures the ability of the compounds of the invention to inhibit the synthesis of 5,12-diHETE by rat glycogen-elicited polymorphonuclear leukocytes.
(§1) Peritoneal PMN are obtained from female Wistar rats (150-250 g) that received an i.p. injection of 6% glycogen (10 ml). After 24 hours, rats are killed by CO2 asphyxiation and peritoneal cells are harvested by peritoneal lavage using Ca^++ and Mg^++ free Hanks' balanced salt solution (HBSS). The peritoneal exudate is centrifuged at 400 g for 10 minutes. After centrifugation, the lavaged fluid is removed and the cell pellet is resuspended in HBSS containing Ca^++ and Mg^++ and 10 mM L-cysteine at a concentration of 2×10^7 cells/ml. To 1 ml portions of cell suspension, test drugs or vehicle are added and incubated at 37° C. for 10 minutes. Following this preincubation, the calcium ionophore (10 μM), A23187, is added together with 0.5 μCi [^14 C] arachidonic acid and further incubated for 10 minutes. The reaction is stopped by the addition of ice cold water (3 ml) and acidification to pH 3.5. Lipoxygenase products are then extracted twice into diethyl ether. The pooled ether extracts are evaporated to dryness under nitrogen and the residue is redissolved in a small volume of methanol and spotted on aluminum backed pre-coated thin layer chromatographic plates. The samples are then co-chromatographed with authentic reference 5,12-diHETE in the solvent system-hexane:ether:acetic acid (50:50:3). After chromatography, the areas associated with 5,12-diHETE standard are identified by autoradiography, cut out and quantitated by liquid scintillation.
Results are expressed as the 50% Inhibitory concentration, or as percent inhibition at a given.

In assay [2] the test system is TxB2 synthesis (cyclooxygenase). Briefly: Inhibition of synthesis of cyclooxygenase oxidation product TxB2 (rat polymorphonuclear leukocytes). Type of assay: cell-based. The settings on record: Leukocyte, rat PMN; for IC50: A23187 10 μM, read-out: 50% Inhibitory Concentration (IC50). The method, then: as §1
The procedure of Example 17 is also employed for the determination of the ability of the compounds of the invention to inhibit the synthesis of the arachidonic acid cyclooxygenase oxidation product TxB2.
In this assay, the procedure of Example 17 is carried out as described. However, in order to determine cyclooxygenase activity, the samples are cochromatographed with authentic reference TxB2 in the solvent system ethyl acetate:formic acid (80:1) and the upper phase of ethyl acetate:isoctane:acetic acid:water (110:50:20:100). After chromatography, the areas associated with TxB2 standard are identified by autoradiography, cut out and quantitated by liquid scintillation techniques.
The results are calculated as in Example 12 and presented below: […]

The test system of assay [3] is LTD4 induced bronchoconstriction. Briefly: In vivo inhibition of LTD4 induced bronchospasm in guinea pigs (exogenously administered leukotrienes). Set-up: species or system guinea pig. Conditions: 10 minutes before induction of bronchospasm (LTD4); for inhibition in vivo at 25 mg/kg: intraduodenal, intraduodenally.
The test system of assay [4] is ovalbumin induced bronchospasm. Nature of the assay: In vivo inhibition of ovalbumin induced bronchospasm in sensitized guinea pigs (endogenous mediators). Set-up: species or system guinea pig. The settings on record: 25 mg/kg, intragastrically, 10 minutes before intravenous ovalbumin challenge. The method, then:
The assay of this Example measures the in vivo ability of the compounds of the invention to inhibit the bronchospasm induced in guinea pigs by endogenous mediators of the bronchoconstriction.
Male Hartley strain guinea pigs weighing 250-350 g are sensitized to chicken ovalbumin (OA) (10 mg i.p.) on days 1 and 3 and used starting on day 26. The animals are anesthetized with pentobarbital sodium (50 mg/kg, i.p.), bilateral vagotomy is performed, and the jugular vein is cannulated for injection of drugs and the carotid artery for monitoring blood pressure. The trachea is cannulated for artificial ventilation by miniature Starling pump and for indirect measurement of respiratory volume changes as described, infra. Succinylcholine (2 mg/kg, i.v.) is administered to arrest spontaneous respiration. […]
Respiratory volume changes are determined by a calibrated piston whose travel is recorded, via a linear transducer, on a Beckman Dynograph recorder. Maximal bronchoconstrictor volume is determined by clamping off the trachea at the end of the experiment. Overflow volumes at minutes 1, 3 and 5 are obtained from the recorded charts.
Area under the volume overflow curve (AUC) is estimated, using the overflow values at 1, 3 and 5 minutes, and expressed as a percentage of the maximal overflow AUC (equation 1): [formula] […]

Assay [5] deals with acute inflammatory response (carrageenan paw edema). Briefly: Rat carrageenan paw edema assay. Format: in vivo. Conditions: po, 50 mg/kg peroral, 1 hour prior to carrageenan, edema at 3 hours. The method, then: The compounds of the invention are tested in the rat carrageenan paw edema assay to determine their ability to inhibit the acute inflammatory response. 140-180 gm male Sprague-Dawley rats, in groups of 6 animals, are injected subcutaneously in the right paw with 0.1 ml of 1% carrageenan at zero time. Mercury plethysmographic readings (ml) of the paw are made at zero time and 3 hours later. Test compounds are suspended or dissolved in 0.5% methylcellulose and given perorally 1 hour prior to carrageenan administration. The increase in paw volume (edema in ml.) produced by the carrageenan is measured. […] Unpaired Student's t-test is used to determine statistical significance.

Assay [6] deals with T1, LTD4 (contraction of isolated guinea pig trachea) (Cavia porcellus, UniProt Q2NNR5).
T1 construct: from tissue; host or cells: isolated tracheal rings of male Hartley guinea pigs
T1 sequence (Q2NNR5 1-340): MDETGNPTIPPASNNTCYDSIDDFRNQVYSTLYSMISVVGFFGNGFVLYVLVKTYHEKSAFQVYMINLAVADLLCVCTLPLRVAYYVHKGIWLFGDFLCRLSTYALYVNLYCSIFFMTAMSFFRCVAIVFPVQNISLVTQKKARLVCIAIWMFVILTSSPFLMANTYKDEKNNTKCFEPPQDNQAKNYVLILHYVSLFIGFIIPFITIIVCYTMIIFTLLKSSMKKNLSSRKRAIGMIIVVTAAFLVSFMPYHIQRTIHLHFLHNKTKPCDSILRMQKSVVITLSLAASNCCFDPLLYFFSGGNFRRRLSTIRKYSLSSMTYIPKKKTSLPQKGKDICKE
Nature of the assay: Isolated guinea pig trachea assay, LTD4 antagonist activity. Format: cell-based. The method, then:
The compounds of the invention are tested in the isolated guinea pig trachea assay to assess their LTD4 antagonist activity. Male Hartley guinea pigs (350-400 g) are euthanized by a blow to the head, the neck is opened and the trachea removed. The trachea is maintained in aerated physiological salt solution, cleared of connective tissue and fat and cut into rings approximately 2 mm in width (usually containing two cartilaginous segments per ring). Two pieces of silk suture are then passed through the lumen of the tracheal ring and are tied around the cartilage, one on each side of the trachealis muscle. The tracheal ring is suspended between a glass hook and a force displacement transducer in a 10 ml organ bath for measurement of isometric tension. Tissues are maintained at 37° C. in aerated (95% O2 /5% CO2) physiological salt solution of the following composition: […] The tracheal rings are maintained at 2 g resting tension and equilibrated for 45 minutes (with frequent washing and readjustment of resting tension). The tracheal rings are first contracted by the addition of carbachol (3×10^-6 M), to determine tissue responsiveness and establish a reference contraction. On attainment of a stable level of contraction (approximately 30 minutes), the tissues are washed several times until baseline tension has been restored and then re-equilibrated for 30 minutes. The tissues are then incubated for 45 minutes with a test antagonist (either 1×10^-6 M or 1×10^-5 M) or 10 μl of an appropriate solvent control (control, non-treated). One tissue in each group serves as the control. Twenty minutes prior to the construction of the LTD4 cumulative concentration-response curve, L-[…]×10^-2 M final bath concentration) is added to inhibit bioconversion of LTD4 to LTE4. Only one LTD4 concentration-response curve is constructed in each tissue. All responses to LTD4 are calculated as a percentage of the reference contraction to carbachol. LTD4 antagonist activity is determined by comparison of the concentration response curves of LTD4 in the presence and absence of antagonist. Assessment of the relative rightward shift of the antagonist treated curve relative to the solvent (control) treated tissue is calculated as a concentration ratio (Eq. A) and used in subsequent calculations to derive an antagonist pKB value (Eqs B&C). In the event that the maximum response to LTD4 is depressed, the EC50 for that particular curve is determined, an "apparent" pKB reported, and the compound reported as "not-competitive."

Assay [7] addresses T1, LTD4 (contraction of isolated guinea pig trachea). The settings on record: literature value, reference (1); cited from earlier work.
Where [8] appears, read: reference compounds, LTD4 concentration-response curve, read-out: pKB (converted).

Molecules are shown by their SMILES. Like-named read-outs stand apart in the source and are kept apart here.

This is an account of results in patent US5103014A, “Certain 3,3'-[[[(2-phenyl-4-thiazolyl)methoxy]phenyl]methylene]dithiobis-propano ic acid derivatives” (American Home Products Corporation, priority 1990, dated 1992).

As usually defined, the ED50 is the midpoint of the dose-response relation. The term % Inhibition denotes the change of the read-out against control, counted positive when it falls. As usually defined, the inhibition in vivo is the percentage by which the read-out fell short of the control. The low end stands for little suppression, the high end for strong suppression. For the molecule `O=S(=O)(Nc1cccc(OCc2csc(-c3ccccc3)n2)c1)C(F)(F)F` [Example 3, 1,1,1-Trifluoro-N-[3-[(2-phenyl-4-thiazolyl)methoxy]phenyl]methanesulfonamide], the IC50 in assay [1] is 3.2 µM; in assay [2] it was 1.7 µM. Besides, the ED50 in assay [3] (Cavia porcellus, intragastrically, read-out: ED50) was 2.4 mg/kg; in assay [3] (intragastrically), 3.0 mg/kg. The “% Inhibition” value in assay [4] is recorded as 10%. The inhibition in vivo at 50 mg/kg in assay [5] worked out at 51%.
By inhibition is commonly meant the relative decrease from the control value, in per cent. High values mean a response far below the control, low ones a response near the control. In the case of `Cc1ccc(S(=O)(=O)NC(=O)c2cccc(OCc3csc(-c4ccccc4)n3)c2)cc1` [Example 8, N-[(4-Methylphenyl)sulfonyl]-3-[(2-phenyl-4-thiazolyl)methoxy]benzamide], the results for the inhibition at 10 µM in assay [1] and in assay [2] were 55% and 44%, respectively. This molecule gave an inhibition in vivo at 25 mg/kg in assay [3] (Cavia porcellus) of 62%. In addition, the inhibition in vivo at 50 mg/kg in assay [5] turned out to be 51%.
With `O=S(=O)(Nc1cccc(OCc2csc(-c3ccc(Cl)cc3)n2)c1)C(F)(F)F` [Example 9A, 1,1,1-Trifluoro-N-[3-[[2-(4-chlorophenyl)-4-thiazolyl]methoxy]phenyl]methanesulfonamide], the IC50 is 5.2 µM in assay [1] and 7.1 µM in assay [2]. Besides, the inhibition in vivo at 25 mg/kg in assay [3] (Cavia porcellus) was determined as 54%. This molecule also came in with an inhibition in vivo at 50 mg/kg in assay [5] of 60%.
In the case of `O=S(=O)(Nc1cccc(OCc2csc(-c3ccc(F)cc3)n2)c1)C(F)(F)F` [Example 9B, 1,1,1-Trifluoro-N-[3-[[2-(4-fluorophenyl)-4-thiazolyl]methoxy]phenyl]methanesulfonamide], the values for the inhibition at 10 µM in assay [1] and in assay [2] were 64% and 32%, respectively. The molecule also displayed an inhibition in vivo at 25 mg/kg in assay [3] (Cavia porcellus) of 100%. Also, the inhibition in vivo at 10 mg/kg in assay [3] (Cavia porcellus, po, 10 mg/kg, intragastrically) came to 92%. In assay [5], this molecule showed an inhibition in vivo at 50 mg/kg of 55%.
On to `CCCc1c(OCCCCc2nn[nH]n2)ccc(C(C)=O)c1O` [LY-171,883, reference compound], for which the Kb in assay [6] (setting [8]) was 126 nM. The “pKB (Reference)” value in assay [7] is given as 6.65.
For the molecule `O=S(=O)(Nc1cccc(OCc2ccc3ccccc3n2)c1)C(F)(F)F` [Wy-48,252, reference compound], the Kb in assay [6] (antagonist concentration 1 × 10^-6 M, read-out: pKB ± S.E. (converted)) was 83.2 nM; in assay [6] (setting [8]), 36.3 nM. For the same molecule, the “pKB (Reference)” value in assay [7] is listed as 7.70.
